These molecules were tested against CBP (Homo sapiens (Human), UniProt Q92793) (assay: In vitro CBP inhibition (AlphaScreen, biotinylated H4-tetraacetyl peptide)). Settings: not given.
Type: binding
Method in brief: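 His-tagged CBP expressed in E. coli (50 nM final) incubated with biotinylated H4K5/8/12/16(Ac) peptide (20 nM final) in 50 mM HEPES pH 7.3, 10 mM NaCl, 0.25 mM TCEP, 0.1% BSA, 0.005% Brij-35, 0.4% DMSO, 20 min at room temp.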

CBP, sequence (Q92793 1081-1197): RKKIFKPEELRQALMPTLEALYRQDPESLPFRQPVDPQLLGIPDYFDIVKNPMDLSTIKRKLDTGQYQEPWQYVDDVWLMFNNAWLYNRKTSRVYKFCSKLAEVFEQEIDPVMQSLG

Structure (SMILES) | IC50 [nM]
CCOc1cc(=O)n(C)cc1-c1cn(Cc2ccccc2)nc1NC(C)=O [Example 187, N-[1-Benzyl-4-(4-ethoxy-1-methyl-6-oxo-1,6-dihydro-pyridin-3-yl)-1H-pyrazol-3-yl]-acetamide] | 500 to 5000

Same assay, conditions: AlphaScreen, Table 29; read-out: CBP IC50

Structure (SMILES) | IC50 [nM]
COc1ccc(C#N)c(-n2cc(-c3cn(C)c(=O)cc3-c3ccccc3)cn2)c1 [Example 261, 4-Methoxy-2-[4-(1-methyl-6-oxo-4-phenyl-1,6-dihydro-pyridin-3-yl)-pyrazol-1-yl]-benzonitrile] | < 500
Cn1ccc(-c2cc(=O)n(C)cc2-c2cnn(Cc3ccccc3)c2)n1 [Example 109, 5-(1-benzyl-1H-pyrazol-4-yl)-1-methyl-4-(1-methyl-1H-pyrazol-3-yl)pyridin-2(1H)-one] | 500 to 5000
Cn1cc(-c2cnn(Cc3ccccc3)c2)c(SCC(=O)O)cc1=O [Example 169, [5-(1-Benzyl-1H-pyrazol-4-yl)-1-methyl-2-oxo-1,2-dihydro-pyridin-4-ylsulfanyl]-acetic acid] | < 500
CCCNC(=O)Cn1cc(-c2cn(C)c(=O)cc2-c2ccccc2)cn1 [Example 141, 2-(4-(1-methyl-6-oxo-4-phenyl-1,6-dihydro-pyridin-3-yl)-1H-pyrazol-1-yl)-N-propylacetamide] | < 500
Cn1cc(-c2cnn(Cc3ccccc3C#N)c2)ccc1=O [Example 3, 2-((4-(1-methyl-6-oxo-1,6-dihydropyridin-3-yl)-1H-pyrazol-1-yl)methyl)benzonitrile] | 500 to 5000
CC(C)Oc1cc(=O)n(C)cc1-c1cnn([C@@H](C)c2ccccc2)c1 [Example 46, (S)-4-isopropoxy-1-methyl-5-(1-(1-phenylethyl)-1H-pyrazol-4-yl) pyridin-2(1H)-one] | < 500
CNOc1cc(=O)n(C)cc1-c1cnn(Cc2ccccc2)c1 [Example 170, 5-(1-benzyl-1H-pyrazol-4-yl)-1-methyl-4-((methylamino)oxy)pyridin-2(1H)-one] | < 500
Cn1ccc(-c2cc(=O)n(C)cc2-c2cnn(-c3ccccc3C(=O)NC#N)c2)cc1=O [Example 293, N-cyano-2-(4-(1,1′-dimethyl-2′,6-dioxo-1,1′,2′,6-tetrahydro-[4,4′-bipyridin]-3-yl)-1H-pyrazol-1-yl)benzamide] | < 500
CCNC(=O)c1ccn(-c2cc(=O)n(C)cc2-c2cnn(Cc3ccccc3)c2)c1 [Example 81, 1-(5-(1-benzyl-1H-pyrazol-4-yl)-1-methyl-2-oxo-1,2-dihydro-pyridin-4-yl)-N-ethyl-1H-pyrrole-3-carboxamide] | < 500
CC(c1ccccc1)n1cc(-c2cn(C)c(=O)cc2OC2CCC2)cn1 (centres unmarked) [Example 49, 4-cyclobutoxy-1-methyl-5-(1-(1-phenylethyl)-1H-pyrazol-4-yl) pyridin-2(1H)-one] | < 500
O=c1cc(-c2ccccc2)c(-c2cnn(Cc3ccccc3)c2)cn1C(F)F [Example 35, 5-(1-benzyl-1H-pyrazol-4-yl)-1-(difluoromethyl)-4-phenyl-pyridin-2(1H)-one] | 500 to 5000
CCn1ccc(-c2cc(=O)n(C)cc2-c2cnn(-c3cccc(C4CC4)c3C#N)c2)cc1=O [Example 386, 2-cyclopropyl-6-[4-[4-(1-ethyl-2-oxo-4-pyridyl)-1-methyl-6-oxo-3-pyridyl]pyrazol-1-yl]benzonitrile] | < 500
Cn1cc(-c2cnc(-c3ccccc3)o2)c(-c2ccccc2)cc1=O [Example 397, 1-methyl-4-phenyl-5-(2-phenyloxazol-5-yl)pyridin-2(1H)-one] | 500 to 5000
CCNc1ncc(-c2cc(=O)n(C)cc2-c2cnn(-c3cccc(Cl)c3C#N)c2)cn1 [Example 325, 2-chloro-6-(4-(4-(2-(ethylamino)pyrimidin-5-yl)-1-methyl-6-oxo-1,6-dihydropyridin-3-yl)-1H-pyrazol-1-yl)benzonitrile] | < 500
Cn1cc(-c2cn(C)c(=O)cc2C2CCCC2)cn1 [Example 142, 4-cyclopentyl-1-methyl-5-(1-methyl-1H-pyrazol-4-yl) pyridin-2(1H)-one] | 500 to 5000
Cc1ccc(-c2cc(=O)n(C)cc2-c2cnn(-c3cccc(F)c3C#N)c2)cn1 [Example 367, 2-(4-(1′,6-dimethyl-6′-oxo-1′,6′-dihydro-[3,4′-bipyridin]-3′-yl)-1H-pyrazol-1-yl)-6-fluorobenzonitrile] | < 500
Cc1ccc(-c2cc(=O)n(C)cc2-c2cnn(-c3ccccc3C#N)c2)cc1 [Example 213, 2-[4-(1-Methyl-6-oxo-4-p-tolyl-1,6-dihydro-pyridin-3-yl)-pyrazol-1-yl]-benzonitrile] | < 500
Cn1cc(-c2cnn(-c3ccccc3)c2)c(-c2ccccc2)cc1=O [Example 128, 1-methyl-4-phenyl-5-(1-phenyl-1H-pyrazol-4-yl) pyridin-2(1H)-one] | < 500

The remaining lines, values ahead:

IC50 [nM] | Structure (SMILES)
< 500 | CCOc1cc(=O)n(C)cc1-c1cnn(-c2cc(Oc3ccccc3)ccc2C#N)c1 [Example 183, 2-[4-(4-Ethoxy-1-methyl-6-oxo-1,6-dihydro-pyridin-3-yl)-pyrazol-1-yl]-4-phenoxy-benzonitrile]
< 500 | CCOc1cc(=O)n(C)cc1-c1cnn(Cc2ccc(C)cc2)c1 [Example 65, 4-ethoxy-1-methyl-5-(1-(4-methylbenzyl)-1H-pyrazol-4-yl) pyridin-2(1H)-one]
< 500 | COc1ncc(-c2cc(=O)n(C)cc2-c2cnn(-c3ccccc3Cl)c2)cn1 [Example 315, 5-(1-(2-chlorophenyl)-1H-pyrazol-4-yl)-4-(2-methoxypyrimidin-5-yl)-1-methylpyridin-2(1H)-one]
< 500 | Cc1ccc(-c2cc(=O)n(C)cc2-c2cnn(-c3ccccc3C#N)c2)cn1 [Example 377, 2-(4-(1′,6-dimethyl-6′-oxo-1′,6′-dihydro-[3,4′-bipyridin]-3′-yl)-1H-pyrazol-1-yl)benzonitrile]
< 500 | Cn1cc(-c2cnn(Cc3ccccc3)c2)c(NCCC(=O)O)cc1=O [Example 201, 3-((5-(1-benzyl-1H-pyrazol-4-yl)-1-methyl-2-oxo-1,2-dihydropyridin-4-yl)amino)propanoic Acid]
< 500 | Cn1cc(-c2cnn(-c3cccc(C4CC4)c3C#N)c2)c(-c2ccn(CCF)c(=O)c2)cc1=O [Example 389, 2-cyclopropyl-6-[4-[4-[1-(2-fluoroethyl)-2-oxo-4-pyridyl]-1-methyl-6-oxo-3-pyridyl]pyrazol-1-yl]benzonitrile]
< 500 | COc1ccc(C(=O)O)c(-n2cc(-c3cn(C)c(=O)cc3-c3ccccc3)cn2)c1 [Example 267, 4-Methoxy-2-[4-(1-methyl-6-oxo-4-phenyl-1,6-dihydro-pyridin-3-yl)-pyrazol-1-yl]-benzoic acid]
< 500 | Cn1cc(-c2cnn(-c3ccccc3C#N)c2)c(-c2c[nH]c(=O)c(F)c2)cc1=O [Example 240, 2-(4-(5-fluoro-1′-methyl-6,6′-dioxo-1,1′,6,6′-tetrahydro-[3,4′-bipyridin]-3′-yl)-1H-pyrazol-1-yl)benzonitrile]
< 500 | CC(C)Oc1ccc(-c2cc(=O)n(C)cc2-c2cnn(-c3cccc(Cl)c3C#N)c2)cn1 [Example 363, 2-chloro-6-[4-[4-(6-isopropoxy-3-pyridyl)-1-methyl-6-oxo-3-pyridyl]pyrazol-1-yl]benzonitrile]
< 500 | Cn1cc(-c2cnn(Cc3ccccc3)c2)c(-n2ccc(C(=O)O)c2)cc1=O [Example 79, 1-(5-(1-benzyl-1H-pyrazol-4-yl)-1-methyl-2-oxo-1,2-dihydropyridin-4-yl)-1H-pyrrole-3-carboxylic acid]

Reference: patent US10617680B2 (CELGENE QUANTICEL RESEARCH, INC., priority 2017, dated 2020)
